US8916131B2, “Radiopharmaceutical composition” (GE Healthcare Limited, priority 2007, dated 2014)

What was measured:
[1] = Loss of Compound 1 to dispensing kit components (syringe, silicone tube, hard tube, filter), evaluated by HPLC; format: physicochemical; conditions: 7% v/v ethanol
Protocol: Solutions were prepared containing 7% v/v ethanol in 0.01 M sodium phosphate buffer at pH 7.4, 75 μg of Compound 1 and either (i) 12% v/v propylene glycol (PG) or (ii) 10% v/v polyethylene glycol 400 (PEG 400). Percentage loss of Compound 1 to various components of a dispensing kit was evaluated by High Performance Liquid Chromatography (HPLC) in the following experiments: […]

[2] = Compound 1 adsorption (loss) to various silicone tubings with polysorbate 80; format: physicochemical
Protocol: Solutions were prepared containing 7% v/v ethanol in 10 mM sodium phosphate buffer at pH 7.4, 75 μg of Compound 1 and selected v/v % amounts of polysorbate 80. Various silicone tubing types were tested as follows: [table] The percentage loss of Compound 1 onto the tubing was calculated in each experiment. Fluorine was assayed before and after the passage through tubing, and the results were as follows: […]

Q: Which “% loss” value ([1]; 10% v/v PEG 400, filter, 11 sec, 9.5 ml, 0.01 M phosphate pH 7.4) does the source give for `CNc1ccc(-c2nc3ccc(O)cc3s2)cc1[18F]` [Compound 1, 2-[3-[^18F]fluoro-4-(methylamino)phenyl]-6-hydroxy-benzothiazole] here?
A: 51%

Q: And the “% loss” value ([1]; 10% v/v PEG 400, hard tube, 5 min 4 sec, ~2-2.5 ml, 0.01 M phosphate pH 7.4)?
A: 4%

Q: And the “% loss” value ([1]; 10% v/v PEG 400, silicone tube, 2 min 2 sec, ~1-1.5 ml, 0.01 M phosphate pH 7.4)?
A: 8%

Q: And the “% loss” value ([1]; 10% v/v PEG 400, syringe, 1 min 1 sec, 9.5 ml, 0.01 M phosphate pH 7.4)?
A: 1%

Q: What about the “% loss” value ([1]; 12% v/v PG, filter, 10 sec, 9.5 ml, 0.01 M phosphate pH 7.4) of the same molecule?
A: 87%

Q: What about the “% loss” value ([1]; 12% v/v PG, hard tube, 5 min 2 sec, ~2-2.5 ml, 0.01 M phosphate pH 7.4) of the same molecule?
A: 3%

Q: What about the “% loss” value ([1]; 12% v/v PG, silicone tube, 2 min 23 sec, ~1-1.5 ml, 0.01 M phosphate pH 7.4) of the same molecule?
A: 30%

Q: What about the “% loss” value ([1]; 12% v/v PG, syringe, 1 min 4 sec, 9.5 ml, 0.01 M phosphate pH 7.4, 75 μg Compound 1) of the same molecule?
A: 0%

Q: What about the “% Loss Compound 1” value ([2]; Experiment 1: 0.8 × 4.0 Pt-cured silicone tubing, polysorbate 80 0 v/v %, 2 min 0 sec, 350 μl) of the same molecule?
A: 63%

Q: What about the “% Loss Compound 1” value ([2]; Experiment 2: 1.6 × 4.8 Pt-cured silicone tubing, polysorbate 80 0 v/v %, 2 min 7 sec, 1400 μl) of the same molecule?
A: 41%

Q: And the “% Loss Compound 1” value ([2]; Experiment 3: 1.6 × 4.8 Perox-cured silicone tubing, polysorbate 80 0 v/v %, 2 min 6 sec, 1400 μl)?
A: 45%

Q: And the “% Loss Compound 1” value ([2]; Experiment 4: 0.8 × 4.0 Pt-cured silicone tubing, polysorbate 80 1 v/v %, 2 min 3 sec, 350 μl)?
A: 0%

Q: What about the “% Loss Compound 1” value ([2]; Experiment 5: 1.6 × 4.8 Pt-cured silicone tubing, polysorbate 80 1 v/v %, 2 min 10 sec, 1400 μl) of the same molecule?
A: 1%

Q: What about the “% Loss Compound 1” value ([2]; Experiment 6: 1.6 × 4.8 Perox-cured silicone tubing, polysorbate 80 1 v/v %, 2 min 4 sec, 1400 μl) of the same molecule?
A: 0%

Q: What about the “% Loss Compound 1” value ([2]; Experiment 7: 0.8 × 4.0 Pt-cured silicone tubing, polysorbate 80 5 v/v %, 2 min 2 sec, 350 μl) of the same molecule?
A: 0%

Q: What about the “% Loss Compound 1” value ([2]; Experiment 8: 1.6 × 4.8 Pt-cured silicone tubing, polysorbate 80 5 v/v %, 2 min 4 sec, 1400 μl) of the same molecule?
A: 1%

Q: What about the “% Loss Compound 1” value ([2]; Experiment 9: 1.6 × 4.8 Perox-cured silicone tubing, polysorbate 80 5 v/v %, 2 min 1 sec, 1400 μl) of the same molecule?
A: 1%
